Data reported in patent US20200315232A1, “Method to Improve Dispersibility of a Material Having Low Solubility in Water” (PepsiCo, Inc., priority 2012, published 2020).
Residues, ends and D or L forms follow the SMILES beside them.

Experiments:
[1] = cited from earlier work; for Sweetness potency: commonly accepted potency figures, weight basis
[2] = cited from earlier work
[3] = format: physicochemical
Description: Traditionally, the beverage industry makes certain carbonated beverages by first making concentrated syrup and then diluting the syrup with water at the time and place of making the beverage. The dilution ratio in such beverages is often 1:5; meaning one part syrup is mixed with five parts water. The beverage often is carbonated at the time of being bottled or otherwise packaged. For any ingredient to be incorporated into such a 1:5 syrup, the solubility of the ingredient in the syrup must be at least six times higher than its desired concentration in the finished beverage. […] It would be advantageous, therefore, to develop improved methods of incorporating rebaudioside D into an aqueous solution.

In the case of `CC1=CC(=O)[N-]S(=O)(=O)O1.[K+]` [Acesulfame-K], the Sweetness potency [1] is given as 200 times as sweet as sugar.

In the case of `COC(=O)[C@H](Cc1ccccc1)NC(=O)[C@@H](N)CC(=O)O` [Aspertame] (H-Asp-Phe-OMe), the Sweetness potency [1] is given as 200 times as sweet as sugar.

For `C[C@H](CC[C@@H](O[C@@H]1O[C@H](CO[C@@H]2O[C@H](CO)[C@@H](O)[C@H](O)[C@H]2O)[C@@H](O)[C@H](O)[C@H]1O[C@@H]1O[C@H](CO)[C@@H](O)[C@H](O)[C@H]1O)C(C)(C)O)[C@H]1CC[C@@]2(C)[C@@H]3CC=C4[C@@H](CC[C@H](O[C@@H]5O[C@H](CO[C@@H]6O[C@H](CO)[C@@H](O)[C@H](O)[C@H]6O)[C@@H](O)[C@H](O)[C@H]5O)C4(C)C)[C@]3(C)[C@H](O)C[C@]12C` [Mogroside V], the Sweetness potency [1] is given as 100-300 times as sweet as sugar.

For `COc1ccc(CCC(=O)c2c(O)cc(O[C@@H]3O[C@H](CO)[C@@H](O)[C@H](O)[C@H]3O[C@@H]3O[C@@H](C)[C@H](O)[C@@H](O)[C@H]3O)cc2O)cc1O` [Neohesperidin dihydrochalcone], the Sweetness potency [1] is given as 300 times as sweet as sugar.

In the case of `COC(=O)[C@H](Cc1ccccc1)NC(=O)[C@H](CC(=O)O)NCCC(C)(C)C` [Neotame], the Sweetness potency [1] is given as 8,000 times as sweet as sugar.

In the case of `C=C1C[C@@]23CC[C@H]4[C@@](C)(CCC[C@@]4(C)C(=O)O[C@@H]4O[C@H](CO)[C@@H](O)[C@H](O)[C@H]4O)[C@@H]2CC[C@]1(O[C@@H]1O[C@H](CO)[C@@H](O)[C@H](O[C@@H]2O[C@H](CO)[C@@H](O)[C@H](O)[C@H]2O)[C@H]1O[C@@H]1O[C@H](CO)[C@@H](O)[C@H](O)[C@H]1O)C3` [Rebaudioside A, rebaudioside A], the “Sweetness relative to sucrose” value ([1]; background statement) is given as “approximately 200 times sweeter than sucrose”, the Sweetness potency [1] is given as 150-300 times as sweet as sugar and the “Solubility in aqueous solution” value ([2]; room temperature) is given as “at least 3000 ppm”. The “Water solubility (in words)” value [2] was “more soluble than stevioside”.

In the case of `C=C1C[C@@]23CC[C@H]4[C@@](C)(CCC[C@@]4(C)C(=O)O[C@@H]4O[C@H](CO)[C@@H](O)[C@H](O)[C@H]4O[C@@H]4O[C@H](CO)[C@@H](O)[C@H](O)[C@H]4O)[C@@H]2CC[C@]1(O[C@@H]1O[C@H](CO)[C@@H](O)[C@H](O[C@@H]2O[C@H](CO)[C@@H](O)[C@H](O)[C@H]2O)[C@H]1O[C@@H]1O[C@H](CO)[C@@H](O)[C@H](O)[C@H]1O)C3` [Rebaudioside D, rebaudioside D], the Sweetness potency [1] is given as 180-200 times as sweet as sugar, the “Water solubility (in words)” value [2] is given as “low” and the “Stable solubility in aqueous solution” value [3] is given as “no more than 450 ppm”.

For `O=C1NS(=O)(=O)c2ccccc21` [Saccharine], the Sweetness potency [1] is listed as 300 times as sweet as sugar.

In the case of `C=C1C[C@@]23CC[C@H]4[C@@](C)(CCC[C@@]4(C)C(=O)O[C@@H]4O[C@H](CO)[C@@H](O)[C@H](O)[C@H]4O)[C@@H]2CC[C@]1(O[C@@H]1O[C@H](CO)[C@@H](O)[C@H](O)[C@H]1O[C@@H]1O[C@H](CO)[C@@H](O)[C@H](O)[C@H]1O)C3` [Stevioside, stevioside], the Sweetness potency [1] is listed as 100-250 times as sweet as sugar and the “Water solubility (in words)” value [2] is listed as “only sparingly soluble in water”.

In the case of `OC[C@H]1O[C@H](O[C@]2(CCl)O[C@H](CCl)[C@@H](O)[C@@H]2O)[C@H](O)[C@@H](O)[C@H]1Cl` [Sucralose], the Sweetness potency [1] is listed as 600 times as sweet as sugar.
